In patent US20100041045A1, “NUCLEIC ACID FLUORESCENT STAINS” (SIGMA-ALDRICH CO., priority 2007, published 2010):
Like-named read-outs stand apart in the source and are kept apart here.

Legend:
[1] = tested on: HindIII-digested lambda DNA; assay: Digestion of stained DNA (Example 7); assay type: biochemical; conditions: 6557 bp band eluted from gel, restriction enzyme
Experimental: To determine whether the binding between DNA and an unsymmetrical monomethincyanine dye was strong enough to inhibit the digestion of the DNA, HindIII-digested lambda DNA (1 μg/lane) was resolved on an agarose gel (0.8%), as described above. The DNA was stained either during or after electrophoresis. The band-of-interest (e.g., the 6557 bp band) was excised from the gel using a blue light transilluminator [see FIG. 6A, the DNA was stained with 6 (SL-2791)]. DNA was eluted from the piece of agarose using a spin column (GenElute Agarose Spin Column, Cat. No. 5-6500; Sigma-Aldrich). The collected DNA was digested with an appropriate restriction enzyme, and the reaction products were analyzed on a new agarose gel (1.2%) using compound 9 (SL-2845). The left lane of FIG. 6B presents the undigested DNA and the right lane of FIG. 6B presents the digested products.

PstI-digested lambda DNA = assay: Post electrophoretic staining of DNA in agarose gels (Example 2); conditions: for detection of stained DNA at longer wavelengths: laser scanner, 532/580 filter set
Experimental: The absorption and emission spectra of the unsymmetrical monomethincyanine dyes of the invention are shifted to longer wavelengths relative to those of commonly used nucleic acid stains. […] Invitrogen Corp.) and imaged using different detection devices. PstI-digested lambda DNA (Cat. No. D1793; Sigma-Aldrich, St. Louis, Mo.) was resolved on agarose gels in the presence of TBE buffer, pH 8.3. Lanes were loaded with a total of either 500 ng or 100 ng of DNA (the loading buffer contained 0.05% bromophenol blue (w/v), 40% sucrose (w/v), 0.5% SDS (w/v), and 0.1 M EDTA, pH 8). The gels were run at 90 V for about 90 min. After electrophoresis, the gels were submerged in a solution of TBE buffer comprising 2 μM of 6 (SL-2791) or SG1 for 1 hr. After a quick rinse, the gels were imaged with 1) a 300 nm UV transilluminator (Cat. No. T2202; Sigma-Aldrich) or a 450 nm (blue light) transilluminator (Dark Reader™; Clare Chemical Research, Denver, Colo.) and a CCD camera imaging system (Gel Logic 100; Kodak Imaging, Rochester, N.Y.) equipped with a 535 nm or a 590 nm emission filter and 2) a laser scanner fluorescent image analyzer system (FLA-300; Fujifilm, Japan) equipped with excitation/emission filter sets of 473/520 nm or 532/580 nm.

[2] = tested on: HindIII-digested lambda DNA; assay: DNA gel staining, comparison of compounds 7 and 8 (Example 4); conditions: 200 and 20 ng/lane DNA
Experimental: The brightness, sensitivity, and spectral properties of two of the new unsymmetrical monomethincyanine dyes, compound 7 (SL-2833) and compound 8 (SL-2834), were compared by staining gels containing 200 ng/lane and 20 ng/lane of HindIII-digested lambda DNA. The gels were processed and imaged as described above in Example 2.

[3] = tested on: HindIII-digested lambda DNA; assay: Prestaining of DNA during electrophoresis (Example 3)
Experimental: The ability of another of the new unsymmetrical monomethincyanine dyes, i.e., compound 7 (SL-2833), to stain DNA during electrophoresis (i.e., “prestain”) was compared to that of ethidium bromide (EtBr). For this, 1 μM of 7 (SL-2833) or EtBr was added to the heated agarose before the gel was poured. The gels were loaded with 200 ng/lane and 20 ng/lane of HindIII-digested lambda DNA (Cat. No. D9780; Sigma-Aldrich) and run at 90 V for about 90 min. After electrophoresis, the gels were imaged as described above in Example 2.

[4] = tested on: human alu-consnesus sequence; assay: Real-time qPCR (Example 9); assay type: biochemical
Experimental: PCR was performed on human genomic DNA obtained from 0.16 million human peripheral blood leukocytes by direct lysis in a volume of 1 ml as described by Christopherson et al, PCR-Based Assay To Quantify Human Immunodeficiency Virus Type 1 DNA In Peripheral Blood Mononuclear Cells, 2000, J Clin Microbiol., pp. 630-634, Vol. 38. […] Additionally, a non-template control containing deionised water as sample was used. Two μl per sample were then used for real-time PCR as follows: PCR reactions were run in JumpStart™ ReadyMix™ (Sigma Aldrich, order number p2893), containing salt, buffer, Taq-DNA polymerase and deoxynucleotidetriphosphates in a final volume of 32 μl. PCR primers were added to a final concentration of 1 μM. To obtain optimal performance in real time PCR, the PCR mix was supplemented with additional MgCL2 to a final concentration of 3 mM. The DNA binding dye Nancy-520 was added to a final concentration of 200 nM. PCR primers mf39 (5′-[…]-3′) and mf40 (5′-[…]-3′) were used at a final concentration of 1 μM. These primers amplify a 133 base pair fragment of the human alu-consnesus sequence (see Clayerie et al, Alu alert, 1994, Nature, pp. 752, Vol. 371.) (available from the Genbank database: http://www.ncbi.nlm.nih.gov/Genbank/, entry nr: HSU14574). Because these repetitive sequences are highly abundant in the human genome, the PCR for alu sequences can be used to detect minute amounts of human DNA.
Real-time PCR was performed in a real-time PCR thermocycler (IQ-5, Biorad, Basel Switzerland) using the following cycling profile: Initial denaturation 94° C. 20 sec, followed for 40 cycles (94° C. 5 sec, 60° C. 5 sec, 72° C. 20 sec, 60° C. 60 sec with real-time monitoring). After cycling a melting curve analysis ranging from 55° C.-92° C. was performed with temperature increments of 0.5° C. and measurement intervals of 30 sec. Five different optical filter-sets were used for real-time PCR monitoring and melting-curve analysis according to the suppliers instructions (see table 1).
Data (FIG. 9A, 9C, 9D) were analyzed using the IQ5 software (version 2.0) or by linear regression analysis (FIG. 9B) using the statistical software GraphPad Prism version 5.01 (GraphPad Software, Inc., La Jolla, Calif.)
The first number, 485, indicates the center of the wavelength of light. The second number, 20 indicates the total breadth of wavelengths of light that can pass through it.

dsDNA = assay: Binding specificity and fluorescence with dsDNA versus ssDNA
[5] = tested on: HindIII-digested lambda DNA and 0.2-10 kb RNA markers; assay: Staining of DNA and RNA in gels (Example 5); conditions: 200 ng/lane DNA, 1 μg/lane RNA; laser scanner 532/580 nm
Experimental: Gels were loaded with 200 ng/lane of HindIII-digested lambda DNA and 1 μg/lane of 0.2-10 kb RNA markers (Cat. No. R1386; Sigma-Aldrich). The RNA loading buffer contained 62.5% formamide (v/v), 1.14 M formaldehyde, 0.2 mg/ml bromophenol blue, 0.2 mg/ml xylene cyanol, and 1.25×MOPS-EDTA-sodium acetate buffer. After electrophoresis the gels were stained with compound 9 (SL-2845), SG1, or the RNA-specific stain SYBR® Green 2 (SG2; Invitrogen) and imaged as described above in Example 2.

DNA polymerase [6] = assay: Inhibition of DNA polymerase activity in qPCR; assay type: biochemical; conditions: concentrations greater than 0.5 μM
DNA polymerase [7] = conditions: high concentrations (>0.5 μM); cited from earlier work
[8] = tested on: HindIII-digested lambda DNA; assay: Determination of the lower limit of detection (Example 6); conditions: 300 nm UV transilluminator, CCD camera, 590 nm emission filter
Experimental: HindIII-digested lambda DNA (200 ng/lane and 20 ng/lane) was resolved on agarose gels, as described above. EtBr was added to one gel such that the DNA was stained during electrophoresis; the other gels were stained with compound 6 (SL-2791), 7 (SL-2833), 8 (SL-2834), 9 (SL-2845), or SG1 after electrophoresis. Gels were imaged using a 300 nm UV transilluminator and a CCD camera with a 590 nm emission filter.

[9] = 1 μM in gel, UV transilluminator

Compound: CN1C(c2ccccc2)=C/C(=C\c2sc3ccccc3[n+]2CCCO)c2ccccc21 [Compound 6, 1-Methyl-4-[(2,3-dihydro-3-(3-hydroxypropyl)benzo-1,3-thiazol-2-yl)-methyliden]-2-phenyl-quinolinium perchlorate]
- enzymatic digestion of stained DNA [1]: may be enzymatically digested
- brightness of stained DNA bands compared with SG1 (PstI-digested lambda DNA; 2 μM stain in TBE for 1 hr, under each detection condition): much brighter
- detection of stained DNA at longer wavelengths (PstI-digested lambda DNA): could be detected at longer wavelengths

Compound: Cc1ccc2c(c1)/C(=C/c1sc3ccccc3[n+]1CCCO)C=C(c1ccccc1)N2C [Compound 7]
- detection using the laser-based long wavelength imaging system [2]: clearly detected
- fluorescence with blue light transilluminator and 590 nm filter as compared to UV transilluminator [2]: reduced fluorescence
- background fluorescence at top of gels compared with EtBr [3, 9]: lower background fluorescence
- fluorescence of stained DNA bands compared with EtBr [3, 9]: increased fluorescence
- imaging of stained DNA at longer wavelengths ([3]; laser scanner 473/520 and 532/580 nm filter sets, low levels of DNA = 20 ng/lane): readily imaged

Compound: Cc1ccc2c(c1)/C(=C/c1sc3ccccc3[n+]1CCO)C=C(c1ccccc1)N2C [Compound 8]
- detection using the laser-based long wavelength imaging system [2]: clearly detected
- fluorescence with blue light transilluminator and 590 nm filter as compared to UV transilluminator [2]: reduced fluorescence

Compound: CN1C(c2ccccc2)=C/C(=C\c2sc3ccccc3[n+]2CCCCO)c2ccccc21 [Compound 9]
- robustness in DNA melt curve analysis ([4]; 55° C.-92° C. following PCR cycling): sufficiently robust
- thermostability ([4]; PCR temperature cycles): high thermostability
- Performance of PCR in measuring Nancy-520 fluorescence ([4]; filter-set CY3, 545/30X 585/20M): Filter set unsuitable (data not shown)
- Performance of PCR in measuring Nancy-520 fluorescence ([4]; filter-set CY5, 630/30X 685/30M): Filter set unsuitable (data not shown)
- Performance of PCR in measuring Nancy-520 fluorescence ([4]; filter-set FAM, 485/20X 530/30M): Weak
- Performance of PCR in measuring Nancy-520 fluorescence ([4]; filter-set TXR, 575/30X 625/30M): Strong amplification signals (virtually
- PCR signal amplitudes at lower dye concentrations ([4]; lower concentrations than 2000 nm, data not shown): Suitable although slightly reduced signal amplitudes
- binding specificity for dsDNA (dsDNA): high binding specificity
- fluorescence in the presence of dsDNA (dsDNA): strong fluorescence signal
- fluorescence in the presence of ssDNA or in the absence of nucleic acids (dsDNA): only weak fluorescence
- staining intensity of DNA versus RNA [5]: stained DNA more intensely than RNA
- inhibition of DNA polymerase activity (DNA polymerase [6]): does not inhibit DNA polymerase activity

Compound: CCCN(CCCN(C)C)c1cc(/C=C2/Sc3ccccc3N2C)c2ccccc2[n+]1-c1ccccc1 [SG1]
- inhibition of DNA polymerase activity (DNA polymerase [7]): inhibit DNA polymerase activity
- detection of stained DNA at longer wavelengths (PstI-digested lambda DNA): not visible
- detection of stained DNA at longer wavelengths (PstI-digested lambda DNA; listed as SYBR® Green 1): not detected
- lower limit of detection, DNA per lane [8]: less than 1 ng
